Experimental data taken from ChEMBL document CHEMBL1201862, “PubChem BioAssay data set” (2004).
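Interpolation was linear, between the two tested concentrations surrounding the appropriate level; five concentrations were tested over 48 hours in 96-well plates. GI50: concentration for 50% inhibition of growth.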 Activity calls are given as the source filed them. Rule as the data show it: active = GI50 up to about 1.1 µM and inactive = higher.

What was measured:
Experiment in all cases: DTP human tumour cell line panel, 48 h
[1] = test system: OVCAR-4
[2] = test system: NCI-H226
[3] = test system: SK-MEL-2
[4] = test system: OVCAR-8
[5] = test system: NCI-H23
[6] = test system: OVCAR-5
[7] = test system: UACC-62
[8] = test system: SW-620
[9] = test system: PC-3
[10] = test system: CAKI-1
[11] = test system: Hs-578T
[12] = test system: RXF 393
[13] = test system: MCF7
[14] = test system: HCT-116
[15] = test system: OVCAR-3
[16] = test system: KM12
[17] = test system: DU-145
[18] = test system: SNB-75
[19] = test system: HOP-92
[20] = test system: NCI-H522
[21] = test system: SK-MEL-28
[22] = test system: SF-268
[23] = test system: NCI/ADR-RES
[24] = test system: TK-10
[25] = test system: HT-29
[26] = test system: SNB-19
[27] = test system: A549
[28] = test system: Malme-3M
[29] = test system: SN12C
[30] = test system: M14
[31] = test system: HOP-62
[32] = test system: LOX IMVI
[33] = test system: MDA-MB-435
[34] = test system: CCRF-CEM
[35] = test system: MDA-MB-231
[36] = test system: MOLT-4
[37] = test system: UO-31
[38] = test system: SF-295
[39] = test system: ACHN
[40] = test system: HL-60
[41] = test system: COLO 205
[42] = test system: K562
[43] = test system: U-251
[44] = test system: SK-MEL-5
[45] = test system: RPMI-8226
[46] = test system: 786-0
[47] = test system: T47D
[48] = test system: NCI-H460
[49] = test system: SF-539
[50] = test system: MDA-N
[51] = test system: SR
[52] = test system: EKVX
[53] = test system: IGROV-1
[54] = test system: UACC-257

Measured: GI50

COC(=O)C1Cc2c(OC)ccc(OC)c2C(O)C1C(=O)OC (centres undefined)
inactive: [1] > 100 µM | [2] > 100 µM | [3] > 100 µM | [4] > 100 µM | [5] > 100 µM | [6] > 100 µM | [7] > 100 µM | [8] > 100 µM | [9] > 100 µM | [10] > 100 µM | [11] > 100 µM | [12] > 100 µM | [13] > 100 µM | [14] > 100 µM | [15] > 100 µM | [16] > 100 µM | [17] > 100 µM | [18] > 100 µM | [19] > 100 µM | [20] > 100 µM | [21] > 100 µM | [22] > 100 µM | [23] > 100 µM | [24] > 100 µM | [25] > 100 µM | [26] > 100 µM | [27] > 100 µM | [28] > 100 µM | [29] > 100 µM | [30] > 100 µM | [31] > 100 µM | [32] > 100 µM | [33] > 100 µM | [34] > 100 µM | [35] > 100 µM | [36] > 100 µM | [37] > 100 µM | [38] > 100 µM | [39] > 100 µM | [40] > 100 µM | [41] > 100 µM | [42] > 100 µM | [43] > 100 µM | [44] > 100 µM | [45] > 100 µM | [46] > 100 µM | [47] > 100 µM | [48] > 100 µM | [49] > 100 µM | [50] > 100 µM | [51] > 100 µM | [52] > 100 µM | [53] > 100 µM | [54] > 100 µM
